Test results from US10946030B2, “Formulations of deoxycholic acid and salts thereof” (ALLERGAN SALES, LLC, priority 2011, dated 2021).
Entries after “also recorded” stand apart in the source; their conditions may differ.

Columns and labels:
[1] = pH measurement of sodium deoxycholate solutions; format: physicochemical
Description: The inverse aqueous solubility of sodium deoxycholate, where a more dilute solution (0.5% or 1%) provides more precipitation than a more concentrated solution (2%), is a surprising observation and also evidences that the precipitation phenomena is not directly related to pH, because the pH of the solutions were substantially the same again, especially for the 1% and 2% solutions.

[2] = Concentration dependent precipitation from aqueous sodium deoxycholate solution after storage, rated by visual inspection; format: physicochemical; conditions: 1 week storage; for Precipitation Rating: scale 0 = clear solution, 10 = substantial precipitation
Protocol: Solutions of sodium deoxycholate at different concentration were evaluated for precipitate formation after 1 week of storage. […] By visual inspection of FIGS. 1-4, the amount of precipitation can be rated as tabulated below.

Compound: C[C@H](CCC(=O)[O-])[C@H]1CCC2C3CC[C@@H]4C[C@H](O)CC[C@]4(C)C3C[C@H](O)[C@@]21C.[Na+] (stereo partly drawn) [Sodium Deoxycholate, sodium (4R)-4-((3R,5R,10S,12S,13R,17R)-3,12-dihydroxy-10,13-dimethylhexadecahydro-1H-cyclopenta[a]phenanthren-17-yl)pentanoate]
- pH ([1]; 0.5% w/v solution, reading 1, 24.7 °C): 7.77
- pH ([1]; 0.5% w/v solution, reading 2, 24.5 °C): 7.71
- pH ([1]; 1% w/v solution, reading 1, 24.6 °C): 7.93
- pH ([1]; 1% w/v solution, reading 2, 24.5 °C): 7.97
- pH ([1]; 2% w/v solution, reading 1, 24.9 °C): 8.07
- pH ([1]; 2% w/v solution, reading 2, 24.7 °C): 8.06
- Precipitate observed (Comment) ([2]; 0.5% w/v in water + 0.9% w/v benzyl alcohol, FIG. 2): Significant amounts of precipitate visible
- Precipitate observed (Comment) ([2]; 0.5% w/v in water + 0.9% w/v benzyl alcohol, FIG. 2, listed as sodium deoxycholate): a significant amount of precipitate is formed; also recorded: significant amounts of precipitate
- Precipitation Rating ([2]; 0.5% w/v in water + 0.9% w/v benzyl alcohol): 10
- Precipitate observed (Comment) ([2]; 1% w/v in water + 0.9% w/v benzyl alcohol, FIG. 3): Significant amounts of precipitate visible
- Precipitate observed (Comment) ([2]; 1% w/v in water + 0.9% w/v benzyl alcohol, FIG. 3, listed as sodium deoxycholate): a significant amount of precipitate is formed; also recorded: significant amounts of precipitate, albeit less than that of 0.5% w/v sodium deoxycholate
- Precipitation Rating ([2]; 1.0% w/v in water + 0.9% w/v benzyl alcohol): 7
- Precipitate observed (Comment) ([2]; 2% w/v in water + 0.9% w/v benzyl alcohol, FIG. 4): Precipitation visible to the naked eye but
- Precipitate observed (Comment) ([2]; 2% w/v in water + 0.9% w/v benzyl alcohol, FIG. 4, listed as sodium deoxycholate): significant amounts of precipitate but substantially less than that observed in FIGS. 2 and 3
- Precipitation Rating ([2]; 2.0% w/v in water + 0.9% w/v benzyl alcohol): 2
